Results: ChEMBL document CHEMBL1201861, “Genomics of Drug Sensitity in Cancer screening data, Wellcome Trust Sanger Institute”

How the values were obtained:
Experiment in all cases: cells
Settings in all cases: Homo sapiens
COLO-800 = type: functional, cell-based;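 also: growth inhibition of COLO-800 cells, read out with a cell viability assay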
Description: SANGER: Inhibition of human COLO-800 cell growth in a cell viability assay.

COLO-829 = type: functional, cell-based
Description: SANGER: Inhibition of human COLO-829 cell growth in a cell viability assay.

CP66-MEL = type: functional, cell-based;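 also: growth inhibition of CP66-MEL cells determined in a cell viability assay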
Description: SANGER: Inhibition of human CP66-MEL cell growth in a cell viability assay.

CW-2 = type: functional, cell-based;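 also: growth inhibition of CW-2 cells, read out by a cell viability assay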
Description: SANGER: Inhibition of human CW-2 cell growth in a cell viability assay.

D-263MG = type: functional, cell-based
Description: SANGER: Inhibition of human D-263MG cell growth in a cell viability assay.

D283 Med = type: functional, cell-based
Description: SANGER: Inhibition of human D-283MED cell growth in a cell viability assay.

DSH1 = type: functional, cell-based;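 also: growth inhibition of human DSH1 cells, measured with a cell viability readout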
Description: SANGER: Inhibition of human DSH1 cell growth in a cell viability assay.

EKVX = type: functional, cell-based;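 also: growth inhibition of human EKVX cells, read out with a cell viability assay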
Description: SANGER: Inhibition of human EKVX cell growth in a cell viability assay.

EW-11 = type: functional, cell-based;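 also: growth inhibition of human EW-11 cells, measured with a cell viability assay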
Description: SANGER: Inhibition of human EW-11 cell growth in a cell viability assay.

GI-ME-N = type: functional, cell-based;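 also: growth inhibition of human GI-ME-N cells, read out with a cell viability assay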
Description: SANGER: Inhibition of human GI-ME-N cell growth in a cell viability assay.

HAL-01 = type: functional, cell-based;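 also: growth inhibition of human HAL-01 cells, read out with a cell viability assay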
Description: SANGER: Inhibition of human HAL-01 cell growth in a cell viability assay.

HL-60 = type: functional, cell-based;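 also: growth inhibition of human HL-60 cells, read out with a cell viability assay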
Description: SANGER: Inhibition of human HL-60 cell growth in a cell viability assay.

HuTu80 = type: functional, cell-based, HUTU-80;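 also: growth inhibition of HuTu80 human cells, determined with a cell viability readout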
Description: SANGER: Inhibition of human HUTU-80 cell growth in a cell viability assay.

IST-MES1 = type: functional, cell-based;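 also: growth inhibition of IST-MES1 cells, measured with a cell viability assay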
Description: SANGER: Inhibition of human IST-MES1 cell growth in a cell viability assay.

JAR = type: functional, cell-based;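 also: growth inhibition of human JAR cells determined with a cell viability assay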
Description: SANGER: Inhibition of human JAR cell growth in a cell viability assay.

KARPAS-299 = type: functional, cell-based
Description: SANGER: Inhibition of human KARPAS-299 cell growth in a cell viability assay.

KE-37 = type: functional, cell-based;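 also: growth inhibition of KE-37 cells, read out with a cell viability assay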
Description: SANGER: Inhibition of human KE-37 cell growth in a cell viability assay.

L-428 = type: functional, cell-based
Description: SANGER: Inhibition of human L-428 cell growth in a cell viability assay.

LB1047-RCC = type: functional, cell-based;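 also: inhibition of cell growth, determined with a cell viability assay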
Description: SANGER: Inhibition of human LB1047-RCC cell growth in a cell viability assay.

LB373-MEL-D = type: functional, cell-based;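 also: growth inhibition of the cell line, read out in a cell viability assay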
Description: SANGER: Inhibition of human LB373-MEL-D cell growth in a cell viability assay.

LB771-HNC = type: functional, cell-based;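 also: growth inhibition of LB771-HNC human cells, read out with a cell viability assay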
Description: SANGER: Inhibition of human LB771-HNC cell growth in a cell viability assay.

LB831-BLC = type: functional, cell-based;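 also: growth inhibition of LB831-BLC cells, read out with a cell viability assay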
Description: SANGER: Inhibition of human LB831-BLC cell growth in a cell viability assay.

LNCaP-Clone-FGC = type: functional, cell-based
Description: SANGER: Inhibition of human LNCaP-Clone-FGC cell growth in a cell viability assay.

LS-411N = type: functional, cell-based
LS-513 = type: functional, cell-based
Description: SANGER: Inhibition of human LS-513 cell growth in a cell viability assay.

LU-134-A = type: functional, cell-based
Description: SANGER: Inhibition of human LU-134-A cell growth in a cell viability assay.

LXF-289 cell line = type: functional, cell-based
Description: SANGER: Inhibition of human LXF-289 cell growth in a cell viability assay.

MHH-NB-11 = type: functional, cell-based;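 also: growth inhibition of human MHH-NB-11 cells, read out by a cell viability assay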
Description: SANGER: Inhibition of human MHH-NB-11 cell growth in a cell viability assay.

MPP-89 = type: functional, cell-based;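 also: growth inhibition of human MPP-89 cells, read out with a cell viability assay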
Description: SANGER: Inhibition of human MPP-89 cell growth in a cell viability assay.

MSTO-211H = type: functional, cell-based
Description: SANGER: Inhibition of human MSTO-211H cell growth in a cell viability assay.

Mo = type: functional, cell-based
Description: SANGER: Inhibition of human Mo-T cell growth in a cell viability assay.

NB10 = type: functional, cell-based;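 also: growth inhibition of NB10 cells, read out by a cell viability assay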
Description: SANGER: Inhibition of human NB10 cell growth in a cell viability assay.

NB6 = type: functional, cell-based;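 also: growth inhibition of NB6 cells, read out by a cell viability assay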
Description: SANGER: Inhibition of human NB6 cell growth in a cell viability assay.

NCI-H1092 = type: functional, cell-based;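 also: cell growth inhibition measured with a cell viability assay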
Description: SANGER: Inhibition of human NCI-H1092 cell growth in a cell viability assay.

NCI-H1355 = type: functional, cell-based;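 also: growth inhibition of human NCI-H1355 cells, read out by a cell viability assay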
Description: SANGER: Inhibition of human NCI-H1355 cell growth in a cell viability assay.

NCI-H1650 = type: functional, cell-based;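 also: growth inhibition of human NCI-H1650 cells measured by a cell viability assay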
Description: SANGER: Inhibition of human NCI-H1650 cell growth in a cell viability assay.

NCI-H526 = type: functional, cell-based;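 also: growth inhibition of the human NCI-H526 cell line, measured by a cell viability assay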
Description: SANGER: Inhibition of human NCI-H526 cell growth in a cell viability assay.

NH-12 = type: functional, cell-based;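 also: growth inhibition of NH-12 cells, read out with a cell viability assay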
Description: SANGER: Inhibition of human NH-12 cell growth in a cell viability assay.

NKM-1 = type: functional, cell-based;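 also: growth inhibition of NKM-1 cells, read out with a cell viability assay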
Description: SANGER: Inhibition of human NKM-1 cell growth in a cell viability assay.

OCUB-M = type: functional, cell-based;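 also: growth inhibition of the cancer cell line, read out through a cell viability assay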
Description: SANGER: Inhibition of human OCUB-M cell growth in a cell viability assay.

OVCAR-4 = type: functional, cell-based;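 also: growth inhibition of human OVCAR-4 cells, measured with a cell viability assay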
Description: SANGER: Inhibition of human OVCAR-4 cell growth in a cell viability assay.

RH-1 = type: functional, cell-based;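 also: growth inhibition of human RH-1 cells, read out with a cell viability assay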
Description: SANGER: Inhibition of human RH-1 cell growth in a cell viability assay.

SHP77 = type: functional, cell-based, SHP-77;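 also: growth inhibition of human SHP-77 cells measured by a cell viability assay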
Description: SANGER: Inhibition of human SHP-77 cell growth in a cell viability assay.

SK-UT-1 = type: functional, cell-based;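 also: growth inhibition of SK-UT-1 cells, measured by a cell viability assay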
Description: SANGER: Inhibition of human SK-UT-1 cell growth in a cell viability assay.

SW684 = type: functional, cell-based;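 also: growth inhibition of human SW684 cells, measured by a cell viability assay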
Description: SANGER: Inhibition of human SW684 cell growth in a cell viability assay.

SW 962 = type: functional, cell-based;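 also: growth inhibition of human SW962 cells, read out by a cell viability assay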
Description: SANGER: Inhibition of human SW962 cell growth in a cell viability assay.

TE-1 = type: functional, cell-based;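 also: growth inhibition of the human TE-1 cell line, read out with a cell viability assay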
Description: SANGER: Inhibition of human TE-1 cell growth in a cell viability assay.

A498 = type: functional, cell-based;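 also: growth inhibition of human A498 cells, read out with a cell viability assay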
Description: SANGER: Inhibition of human A498 cell growth in a cell viability assay.

ALL-PO = type: functional, cell-based;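 also: growth inhibition of ALL-PO cells, read out by a cell viability assay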
Description: SANGER: Inhibition of human ALL-PO cell growth in a cell viability assay.

BB30-HNC = type: functional, cell-based;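 also: growth inhibition of the cultured cell line, read out by a cell viability assay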
Description: SANGER: Inhibition of human BB30-HNC cell growth in a cell viability assay.

BB49-HNC = type: functional, cell-based;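 also: cell viability assay read-out, reported as inhibition of BB49-HNC cell growth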
Description: SANGER: Inhibition of human BB49-HNC cell growth in a cell viability assay.

BT-474 = type: functional, cell-based
Description: SANGER: Inhibition of human BT-474 cell growth in a cell viability assay.

C2BBe1 = type: functional, cell-based;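 also: growth inhibition of C2BBe1 cells, read out through a viability assay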
Description: SANGER: Inhibition of human C2BBe1 cell growth in a cell viability assay.

TE-8 = type: functional, cell-based;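 also: growth inhibition of TE-8 cells, measured with a cell viability readout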
Description: SANGER: Inhibition of human TE-8 cell growth in a cell viability assay.

TGBC24TKB = type: functional, cell-based;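 also: growth inhibition of human TGBC24TKB cells, read out with a cell viability assay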
Description: SANGER: Inhibition of human TGBC24TKB cell growth in a cell viability assay.

COLO-320-HSR = type: functional, cell-based;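 also: growth inhibition of COLO-320-HSR cells, determined with a cell viability assay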
Description: SANGER: Inhibition of human COLO-320-HSR cell growth in a cell viability assay.

COLO-668 = type: functional, cell-based
Description: SANGER: Inhibition of human COLO-668 cell growth in a cell viability assay.

COLO-684 = type: functional, cell-based
Description: SANGER: Inhibition of human COLO-684 cell growth in a cell viability assay.

O=c1cc(N2CCOCC2)oc2c(-c3cccc4c3sc3ccccc34)cccc12
IC50 (COLO-800): > 2000 nM
IC50 (COLO-829): > 2000 nM
IC50 (CP66-MEL): > 2000 nM
IC50 (CW-2): > 2000 nM
IC50 (D-263MG): > 2000 nM
IC50 (D283 Med): > 2000 nM
IC50 (DSH1): > 2000 nM
IC50 (EKVX): > 2000 nM
IC50 (EW-11): > 2000 nM
IC50 (GI-ME-N): > 2000 nM
IC50 (HAL-01): > 2000 nM
IC50 (HL-60): 1380 nM
IC50 (HuTu80): > 2000 nM
IC50 (IST-MES1): > 2000 nM
IC50 (JAR): > 2000 nM
IC50 (KARPAS-299): > 2000 nM
IC50 (KE-37): > 2000 nM
IC50 (L-428): > 2000 nM
IC50 (LB1047-RCC): > 2000 nM
IC50 (LB373-MEL-D): > 2000 nM
IC50 (LB771-HNC): > 2000 nM
IC50 (LB831-BLC): > 2000 nM
IC50 (LNCaP-Clone-FGC): > 2000 nM
IC50 (LS-411N): > 2000 nM
IC50 (LS-513): > 2000 nM
IC50 (LU-134-A): > 2000 nM
IC50 (LXF-289 cell line): > 2000 nM
IC50 (MHH-NB-11): > 2000 nM
IC50 (MPP-89): > 2000 nM
IC50 (MSTO-211H): > 2000 nM
IC50 (Mo): > 2000 nM
IC50 (NB10): > 2000 nM
IC50 (NB6): > 2000 nM
IC50 (NCI-H1092): > 2000 nM
IC50 (NCI-H1355): > 2000 nM
IC50 (NCI-H1650): > 2000 nM
IC50 (NCI-H526): 284 nM
IC50 (NH-12): > 2000 nM
IC50 (NKM-1): > 2000 nM
IC50 (OCUB-M): > 2000 nM
IC50 (OVCAR-4): > 2000 nM
IC50 (RH-1): > 2000 nM
IC50 (SHP77): > 2000 nM
IC50 (SK-UT-1): > 2000 nM
IC50 (SW684): > 2000 nM
IC50 (SW 962): > 2000 nM
IC50 (TE-1): > 2000 nM
IC50 (A498): > 2000 nM
IC50 (ALL-PO): > 2000 nM
IC50 (BB30-HNC): > 2000 nM
IC50 (BB49-HNC): > 2000 nM
IC50 (BT-474): > 2000 nM
IC50 (C2BBe1): > 2000 nM
IC50 (TE-8): > 2000 nM
IC50 (TGBC24TKB): > 2000 nM
IC50 (COLO-320-HSR): > 2000 nM
IC50 (COLO-668): > 2000 nM
IC50 (COLO-684): > 2000 nM
